{
  "source": "patent US9532994B2",
  "about": "“Agents and methods for enhancing bone formation by oxysterols in combination with bone morphogenic proteins” (THE REGENTS OF THE UNIVERSITY OF CALIFORNIA, priority 2003, dated 2017)",
  "key": {"ERK2": {"system": "ERK2", "experiment": "Western blot for pERK or ERK in M2 cells", "type": "cell-based, mouse", "details": "5 μM 20S for 1, 4, or 8 hours (FIG. 10A)", "experimental": "(§1) Western blot analysis—After treatments, cells were lysed in lysis buffer, protein concentrations determined using the Bio-Rad protein assay (Hercules, Calif. U.S.A.), and SDS-PAGE performed as previously described. Probing for native and phosphorylated ERKs was performed as previously reported.\n(§2) (A) M2 cells at confluence were pretreated for four hours with RPMI containing 1% FBS, followed by treatment with control vehicle or 5 μM 20S oxysterol for 1, 4, or 8 hours. Next total cell extracts were prepared and analyzed for levels of native or phosphorylated ERK (pERK) using specific antibodies as previously described. Data from a representative of four experiments are shown, each treatment shown in duplicate samples. (B) M2 cells at confluence were pretreated for 2 hours with control vehicle (C) or 20 μM PD98059 (PD) in osteogenic medium as previously described. Next, a combination of 22R and 20S oxysterols (RS, 5 μM each) were added to appropriate wells as indicated. After 10 days of incubation, matrix mineralization was quantified by the ^45Ca incorporation assay as previously described. Data from a representative of three experiments are reported as the mean±SD of quadruplicate determinations, normalized to protein concentration (p<0.01 for RS vs. RS+PD). […] After 10 days, adipocytes were visualized by oil Red O staining and quantified by light microscopy as previously described. […]"}, "ERK1": {"system": "ERK1", "experiment": "Western blot for pERK or ERK in M2 cells", "type": "cell-based, mouse", "details": "5 μM 20S for 1, 4, or 8 hours (FIG. 10A)", "experimental": "as §1, §2"}},
  "data": [
    {"smiles": "CC(C)CCC[C@](C)(O)[C@H]1CC[C@H]2[C@@H]3CC=C4C[C@@H](O)CC[C@]4(C)[C@H]3CC[C@@]21C", "note": "[20S, 20(S)-hydroxycholesterol]", "values": [
      {"measurement": "activation of ERK2", "setting": "ERK2", "result": "sustained activation"},
      {"measurement": "activation of ERK1", "setting": "ERK1", "result": "sustained activation"}
    ]}
  ]
}
